Reference: the supplement of paper PMC10307832

Compound: COc1cc(Nc2c(C#N)cnc3cc(OCCCN4CCN(C)CC4)c(OC)cc23)c(Cl)cc1Cl [Bosutinib]
Assay: relative viability (nuclei count vs DMSO), 5 days (fraction); higher = more cells survive
Procedure, shortened: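 Lung cancer cell lines in 1536-well plates were kept overnight at 37 °C, then pinned with five library-drug doses (not always all listed) spaced by √10 on vehicle-anchored plates. After 5 days without medium change, cells were fixed, permeabilised and Hoechst-stained in one step, imaged at 4×, and nuclei were counted with MetaXpress. Viability is treated-well nuclei divided by vehicle-well nuclei, taken as the median over plates. Plates passed only with control CV below 25% and at least one doubling.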

| Cell Line | relative viability (0.01 µM) | relative viability (0.03162 µM) | relative viability (0.1 µM) | relative viability (1 µM) |
| --- | --- | --- | --- | --- |
| 201T | 1 | 0.991 | 1.02 | 0.906 |
| A549 | 1 | 1.04 | 1.01 | 0.939 |
| A-427 | 0.979 | 1.04 | 1.03 | 0.926 |
| ABC-1 | 0.976 | 0.99 | 0.854 | 0.88 |
| BEN | 0.952 | 0.984 | 1.08 | 0.765 |
| CAL-12T | 1.06 | 0.96 | 0.95 | 0.914 |
| COR-L23 | 1.05 | 0.972 | 1.07 | 1.03 |
| COR-L 105 | 0.974 | 0.861 | 0.914 | 0.735 |
| ChaGo-K-1 | 0.966 | 0.976 | 1.01 | 0.997 |
| EKVX | 0.927 | 0.971 | 0.952 | 0.85 |
| EMC-BAC-2 | 0.95 | 1.09 | 1.09 | 0.928 |
| EPLC-272H | 0.982 | 1.01 | 1.12 | 0.911 |
| H3255 | 0.931 | 0.978 | 0.995 | 0.594 |
| HARA | 1.07 | 1.02 | 0.993 | 0.791 |
| HCC-15 | 1.05 | 1.03 | 1.06 | 0.926 |
| HCC-44 | 0.99 | 1.02 | 1.02 | 1.01 |
| HCC-78 | 0.906 | 1.2 | 1.08 | 0.902 |
| HCC-366 | 0.991 | 1 | 0.974 | 0.785 |
| HCC-827 | 1.07 | 1.05 | 1.09 | 0.649 |
| HOP-62 | 0.977 | 1.01 | 0.959 | 1.05 |
| IA-LM | 0.998 | 1.08 | 0.967 | 1.01 |
| LC-2-ad | 0.961 | 1.08 | 1.06 | 1 |
| LCLC-97TM1 | 1.03 | 0.969 | 1.06 | 1.04 |
| LCLC-103H | 1.01 | 0.999 | 0.991 | 0.996 |
| LK-2 | 0.942 | 0.972 | 0.929 | 0.867 |
| LOU-NH91 | 0.941 | 0.999 | 0.971 | 0.779 |

| Cell Line | relative viability (0.01 µM) | relative viability (0.03162 µM) | relative viability (0.1 µM) | relative viability (1 µM) |
| --- | --- | --- | --- | --- |
| LU99A | 0.958 | 1.02 | 1.04 | 0.606 |
| LXF-289 | 1 | 1.01 | 1.03 | 1.01 |
| NCI-H23 | 1.13 | 0.997 | 1.04 | 0.872 |
| NCI-H322M | 0.889 | 0.985 | 0.98 | 0.576 |
| NCI-H358 | 0.964 | 0.913 | 0.961 | 0.685 |
| NCI-H441 | 1.1 | 1.1 | 1.31 | 1.03 |
| NCI-H460 | 1.02 | 0.976 | 0.967 | 0.875 |
| NCI-H520 | 1.02 | 1.11 | 0.953 | 0.775 |
| NCI-H522 | 0.935 | 1.03 | 1.05 | 0.895 |
| NCI-H596 | 1.11 | 1.03 | 0.984 | 0.863 |
| NCI-H647 | 1.07 | 0.933 | 0.928 | 0.627 |
| NCI-H650 | 1 | 1.06 | 1.08 | 1.11 |
| NCI-H661 | 0.97 | 1.09 | 1.06 | 0.731 |
| NCI-H727 | 0.911 | 0.929 | 0.985 | 0.632 |
| NCI-H838 | 0.975 | 0.942 | 0.953 | 0.693 |
| NCI-H1355 | 0.999 | 1.03 | 1.05 | 0.931 |
| NCI-H1395 | 0.932 | 0.914 | 1.01 | 0.817 |
| NCI-H1437 | 1.03 | 0.974 | 1.02 | 0.912 |
| NCI-H1563 | 1.05 | 0.906 | 0.928 | 0.713 |
| NCI-H1650 | 1.01 | 0.846 | 0.778 | 0.783 |
| NCI-H1651 | 0.997 | 0.966 | 1.03 | 0.988 |
| NCI-H1666 | 0.988 | 1.04 | 0.924 | 1.02 |
| NCI-H1703 | 0.869 | 0.972 | 0.835 | 0.468 |
| NCI-H1734 | 1.06 | 1.01 | 0.965 | 0.892 |
| NCI-H1755 | 1.01 | 1.09 | 1.03 | 0.951 |
| NCI-H1792 | 0.822 | 1.08 | 0.993 | 0.84 |

| Cell Line | relative viability (0.01 µM) | relative viability (0.03162 µM) | relative viability (0.1 µM) | relative viability (1 µM) |
| --- | --- | --- | --- | --- |
| NCI-H1793 | 0.916 | 0.84 | 0.791 | 0.588 |
| NCI-H1915 | 0.989 | 1.09 | 1.1 | 1.01 |
| NCI-H1944 | 0.965 | 0.92 | 0.913 | 0.888 |
| NCI-H1975 | 0.992 | 0.958 | 0.966 | 0.81 |
| NCI-H1993 | 0.977 | 0.9 | 0.987 | 0.936 |
| NCI-H2009 | 1.07 | 1.05 | 1.06 | 0.865 |
| NCI-H2023 | 1.02 | 0.943 | 0.948 | 0.852 |
| NCI-H2085 | 0.969 | 0.938 | 0.919 | 0.928 |
| NCI-H2087 | 1.07 | 1.04 | 0.951 | 1.08 |
| NCI-H2126 | 0.972 | 0.997 | 0.969 | 0.994 |
| NCI-H2170 | 1.01 | 0.974 | 1.01 | 0.926 |
| NCI-H2228 | 0.906 | 0.918 | 0.989 | 0.882 |
| NCI-H2342 | 0.961 | 0.99 | 0.926 | 1.21 |
| NCI-H2347 | 1.03 | 1.09 | 0.992 | 1.06 |
| NCI-H2405 | 1.05 | 1.1 | 1.03 | 0.801 |
| NCI-H3122 | 1.02 | 1.02 | 1.01 | 0.993 |
| PC-3 [JPC-3] | 1.04 | 1.07 | 1.06 | 0.745 |
| PC-14 | 1.03 | 0.977 | 0.871 | 0.336 |
| RERF-LC-KJ | 0.997 | 0.971 | 0.978 | 0.948 |
| SK-LU-1 | 0.995 | 1.06 | 1.05 | 0.629 |
| SK-MES-1 | 1.02 | 1.01 | 1.01 | 0.815 |
| SW 900 | 0.856 | 0.706 | 0.801 | 0.815 |
| SW 1573 | 1.05 | 1.02 | 0.941 | 0.924 |
| UMC-11 | 1 | 1.01 | 0.956 | 0.912 |
